Conditions: a range is the spread between reports

| SMILES | melting point |
| --- | --- |
| OC1CCCCCCCCCCC1 | 76 to 78 °C |
| CC(=CC(=O)O)C(=O)O | 90 to 93.5 °C |
| NNc1c(F)c(F)cc(F)c1F | 89 to 92 °C |
| CC(C)C1(C)N=C(c2ncccc2C(=O)O)NC1=O (stereo unspecified) | 171 to 172 °C |
| C=C(C)c1ccccc1 | -23.2 to -23 °C |
| CCCCC1(CC)C(=O)NC(=O)NC1=O | 126 to 128 °C |
| O=C=Nc1ccc([N+](=O)[O-])cc1 | 57 to 58 °C |
| O=C1CCCCC1c1ccccc1 (stereo unspecified) | 57 to 58 °C |
| N#CCC(=O)c1ccccc1 | 80.5 to 83 °C |
| OCc1ccccc1CO | 62 to 64 °C |
| CCOc1ccc(C(C)=O)cc1 | 37 to 39 °C |
| O=[N+]([O-])c1ccc(F)c([N+](=O)[O-])c1 | 25.8 to 27 °C |
| COc1ccc(-c2cc(=O)c3c(O)c(OC)c(O)cc3o2)cc1 | 221 to 225 °C |
| Nc1cccc2c1C(=O)c1ccccc1C2=O | 250 to 254 °C |
| CC1CCCCC1 | -127 to -126 °C |
| CC(C)CCCC(C)C | -103 °C |
| C1CCOCC1 | -49 to -45 °C |
| O=C(c1ccc(Cl)cc1)c1ccc(Cl)cc1 | 145 to 148 °C |
| O=C(O)c1ccc([N+](=O)[O-])o1 | 184 to 187 °C |
| CCCCCCCCCCCCCCCO | 45.5 to 46 °C |
| OCC(O)COc1ccc(Cl)cc1 (stereo unspecified) | 78 to 80 °C |
| Cc1occc(=O)c1O | 162 to 163 °C |
| Oc1ccccc1 | 40.9 to 42 °C |
| NC(=O)c1ccc(Br)cc1 | 191 to 192 °C |
| CC(C)(C)OO | -8 to -3 °C |

| SMILES | melting point |
| --- | --- |
| CC(=O)Oc1ccccc1OC(C)=O | 64 to 64.5 °C |
| ClCCCl | -36 to -35 °C |
| CC(=O)Nc1ccc(C(=O)O)cc1 | 256 to 260 °C |
| O=Cc1c[nH]c2ccccc12 | 196 to 197 °C |
| O=C(O)Cc1ccc(O)cc1 | 149 to 152 °C |
| N#Cc1ccc2ccccc2c1 | 65 to 66 °C |
| CC(C)OC(=O)C=CC(=O)OC(C)C | 2 to 2.1 °C |
| CCCCCCCCOc1ccc(C(=O)c2ccccc2)c(O)c1 | 48 to 48.5 °C |
| Clc1cccc(Br)c1 | -22 to -21.5 °C |
| COC(=O)c1ccc(C)cc1 | 33.2 to 37 °C |
| COc1cc(OC)c(C(=O)O)cc1OC | 144 to 145 °C |
| NC=O | 2 to 2.55 °C |
| Nc1ccc(F)cc1 | -2 to -0.8 °C |
| CCC(C(=O)O)C(=O)O | 113 to 114 °C |
| Nc1ccc2c(c1)CCC2 | 35 to 37.5 °C |
| C=C(CC)C(=O)c1ccc(OCC(=O)O)c(Cl)c1Cl | 121 to 122 °C |
| C[N+](=O)[O-] | -29 to -28.5 °C |
| Cc1ccc2cc3c(ccc4ccccc43)c3c2c1CC3 | 180 °C |
| Nc1nc(N)nc(-c2ccccc2)n1 | 226 to 227 °C |
| O=Cc1cc(Br)cc(Br)c1O | 83 to 86 °C |
| Cc1ccccc1CCl | -2 to 2 °C |
| NCCO | 10 to 11 °C |
| CC(C)C(Br)C(=O)O (stereo unspecified) | 39 to 44 °C |
| Cc1ccccc1C(N)=O | 142 to 147 °C |
| Cc1cc(C)c(S(=O)(=O)Cl)c(C)c1 | 55 to 56 °C |

| SMILES | melting point |
| --- | --- |
| CCCCCCCCCCC=O | -4 to 0 °C |
| OCc1cc(Cl)cc(Cl)c1 | 78 to 80.5 °C |
| Cc1cccnc1N | 31 to 33.5 °C |
| Cc1ccccc1NC(=N)Nc1ccccc1C | 177 to 179 °C |
| CCCCCCCCC | -54 to -53 °C |
| CCCC(O)CCC | -42 to -41.2 °C |
| Brc1ccc2ccccc2c1 | 54 to 59 °C |
| CC(C)c1ccc(O)cc1 | 60 to 62.3 °C |
| CCC(C)(C)O | -12 to -8 °C |
| C1CNCCN1 | 106 to 110 °C |
| C1=CC2CCC1C2 | 45 to 46 °C |
| CCCCOC(=O)CCC | -92 to -91.5 °C |
| NS(=O)(=O)c1ccccc1 | 151 to 153 °C |
| CCOC(=O)CCl | -26 to -21 °C |
| Fc1ccc(N=C=S)cc1 | 26 to 27 °C |
| O=C(O)c1ccc(O)c(Cl)c1 | 169 to 171 °C |
| CCSC | -106 °C |
| ClCc1ccccc1CCl | 55 to 56 °C |
| CCNc1nc(NC(C)(C)C)nc(SC)n1 | 104 to 105 °C |
| C=Cc1ccccc1Br | -53 to -52.5 °C |
| O=CC1CCCCC1 | 34.5 to 35 °C |
| O=Cc1ccc(Cl)cc1Cl | 71 to 73 °C |
| Nc1cccc(Br)c1 | 16 to 18.5 °C |
| COC(=O)c1cccc(Br)c1 | 32 to 33 °C |
| COc1ccc(Br)c(OC)c1 | 25 to 26 °C |

| SMILES | melting point |
| --- | --- |
| N#Cc1ccc(C=O)cc1 | 100 to 102 °C |
| COc1cccc(CC(=O)O)c1 | 70 to 72 °C |
| CCOC(=O)c1ccccc1N | 13 to 15 °C |
| O=C(Oc1cccc(OC(=O)c2ccccc2)c1)c1ccccc1 | 116 to 118 °C |
| Cc1ccc(P(c2ccc(C)cc2)c2ccc(C)cc2)cc1 | 145 to 149 °C |
| O=C(O)CCBr | 60 to 62.5 °C |
| CC(=O)Oc1cccc2ccccc12 | 44.5 to 45 °C |
| CC(=O)Nc1cccc(C(F)(F)F)c1 | 104 to 105 °C |
| CC(C)C(O)C(C)(C)C (stereo unspecified) | -13 to -11 °C |
| CCC(=O)C(CC(C)N(C)C)(c1ccccc1)c1ccccc1 (stereo unspecified) | 98.8 to 102 °C |
| O=C(O)c1cccc(Cl)c1Cl | 168 to 169 °C |
| COc1cccc(C(N)=O)c1 | 133 to 134 °C |
| c1ccc2cnccc2c1 | 26 to 26.5 °C |
| C=CCCCCCCCCCCCCCC | 4 to 4.1 °C |
| c1ccc(-c2nnc(-c3ccccn3)nc2-c2ccccc2)cc1 | 191 to 192 °C |
| O=[N+]([O-])c1cc(Br)ccc1Br | 82 to 85.5 °C |
| O=C(O)CCCc1ccc(N(CCCl)CCCl)cc1 | 64 to 65 °C |
| CN(C)c1ccc([N+](=O)[O-])cc1 | 164 to 165 °C |
| c1ccc(CCc2ccccc2)cc1 | 51 to 55 °C |
| COc1cc(OC)c2ccc(=O)oc2c1 | 148 to 149 °C |
| CCCCCCC(C)CC (stereo unspecified) | -85 to -84.8 °C |
| O=C(O)c1ccc(F)cc1F | 188 to 189 °C |
| CC(S)C(=O)O (stereo unspecified) | 11 to 12 °C |
| CC(C)(Br)C(=O)O | 44 to 48.5 °C |
| CC(C)CCCl | -104 °C |

| SMILES | melting point |
| --- | --- |
| CCOc1ccc(I)cc1 | 28 to 29 °C |
| COc1ccc(-c2ccccc2)cc1 | 88 to 91 °C |
| CC(=O)c1ccc(-c2ccccc2)cc1 | 120 to 122 °C |
| CCOC=C(C#N)C#N | 65 to 66 °C |
| OCc1ccc(CO)cc1 | 118 to 119 °C |
| O=C(c1ccccc1)c1cccs1 | 56 to 57 °C |
| CCCCCCCCCCCCCCCCCCBr | 28 to 28.2 °C |
| CC(=O)N(O)CCCCCNC(=O)CCC(=O)N(O)CCCCCNC(=O)CCC(=O)N(O)CCCCCN | 139 to 140 °C |
| CCc1ccc(CC)cc1 | -43 to -42.8 °C |
| CC(=O)Oc1ccc(-c2ccccc2)cc1 | 88 to 89 °C |
| CCCCCCCCCCCC[N+](C)(C)[O-] | 130 to 132 °C |
| O=Cc1cccc(Cl)c1 | 17 to 18 °C |
| CCCCSC | -98 to -97.8 °C |
| ClCCOCCOCCCl | -32 to -31.5 °C |
| CCCCCCCCCCCCCCCCCC(=O)OC[C@@H](O)[C@H]1OC[C@H](O)[C@H]1O | 55 to 57 °C |
| Oc1cc(O)c2ccccc2c1 | 124 to 125 °C |
| Brc1cc(Br)c(Br)s1 | 27 to 29 °C |
| CCCI | -101 °C |
| O=C(O)COc1ccc(Cl)cc1 | 159 to 164 °C |
| Nc1ccc(C(=O)O)cc1 | 188 to 189 °C |
| O=C(Cl)c1ccc(C(=O)Cl)cc1 | 81 to 83.5 °C |

From a melting point compilation (Tetko et al.)
